From patent publication US9879303B2, “Chromogenic glucuronidase substrates and uses” (Glycosynth Limited, priority 2013, dated 2018)
Structures can show the parent of a compound that is named as a salt.

Tests used:
[1] = test system: 20 different microbial strains; assay: specificity of action on 20 different microbial strains, Columbia agar; format: cell-based; settings: 19 organisms other than E. coli NCTC 10418, FAC
Procedure: (§1) The specificity of action of both DHN-β-D-glucuronide (2) and of catechol-β-D-glucuronide (1), as well as their 6′-methyl esters (4 and 6), was first established using multi-point inoculation of 20 different microbial strains onto Columbia agar plates. The strains chosen represented species commonly encountered in diagnostic microbiology. The substrates were incorporated into the agar at a concentration of 300 mg/L with an iron salt, ferric ammonium citrate, (hereinafter known as FAC) at 500 mg/L. The plates were incubated for 18 h at 37° C. in air.
Of the 20 strains, only the β-D-glucuronidase-positive strain of E. coli, (E. coli NCTC 10418) was able to hydrolyse the substrates. This organism generated diffuse, purple-brown colonies with the catechol substrates and diffuse, maroon colonies with the DHN substrates. Essentially identical results were obtained if other iron salts (e.g. iron(II) gluconate, iron(II) acetate, iron(II) citrate, iron(II) acetylacetonate and iron(III) acetylacetonate) were substituted in place of FAC. The iron compound can be either iron(II) (i.e. ferrous) or iron(III) (i.e. ferric). Both types of compound work equally, and the coloured chelates were still formed when the plates were incubated under anaerobic conditions, which is another useful feature of the present invention. The substrates may also be autoclaved at 116° C. for 20 minutes with no decrease in sensitivity. It will be appreciated that the media and the reagents will all contain at least traces of iron compounds. […] In contrast, supplementing the growth media with compounds of other metals gave either no coloured endpoint or an extremely poor one to visualise. […] Therefore the latter substrates were preferred for more extensive evaluation. […] For convenience, further evaluation of catechol-β-D-glucuronide and DHN-β-D-glucuronide was conducted with the CHA salt forms only (1 and 2b). In the present invention the counter ion of the glucuronide is not considered to be of special significance. For acidic enzyme substrates (including glucuronides), a variety of different counter ions, both inorganic and organic, are well known in the prior art.

[2] = test system: Acinetobacter baumanaii NCTC 19606; assay: multi-point inoculation onto Columbia agar plates; further: key: ++ means strong colour; + means less colour than ++; − means no colour; format: cell-based; settings: substrate 300 mg/L, FAC 500 mg/L, 18 h at 37° C. in air
Procedure: as §1

[3] = test system: Salmonella typhimurium NCTC 74; assay: multi-point inoculation onto Columbia agar plates; further: key: ++ means strong colour; + means less colour than ++; − means no colour; format: cell-based; settings: substrate 300 mg/L, FAC 500 mg/L, 18 h at 37° C. in air
Procedure: as §1

[4] = test system: Enterococcus faecium NCTC 7171; assay: multi-point inoculation onto Columbia agar plates; further: key: ++ means strong colour; + means less colour than ++; − means no colour; format: cell-based; settings: substrate 300 mg/L, FAC 500 mg/L, 18 h at 37° C. in air
Procedure: as §1

[5] = test system: Burkholderia cepacia NCTC 10931; assay: multi-point inoculation onto Columbia agar plates; format: cell-based; settings: substrate 300 mg/L, FAC 500 mg/L, 18 h at 37° C. in air
Procedure: as §1

[6] = test system: Staphylococcus aureus (MRSA) NCTC 11939; assay: multi-point inoculation onto Columbia agar plates; further: key: ++ means strong colour; + means less colour than ++; − means no colour; format: cell-based; settings: substrate 300 mg/L, FAC 500 mg/L, 18 h at 37° C. in air
Procedure: as §1

[7] = test system: Pseudomonas aeruginosa NCTC 10662; assay: multi-point inoculation onto Columbia agar plates; further: key: ++ means strong colour; + means less colour than ++; − means no colour; format: cell-based; settings: substrate 300 mg/L, FAC 500 mg/L, 18 h at 37° C. in air
Procedure: as §1

[8] = test system: Staphylococcus epidermidis NCTC 11047; assay: multi-point inoculation onto Columbia agar plates; further: key: ++ means strong colour; + means less colour than ++; − means no colour; format: cell-based; settings: substrate 300 mg/L, FAC 500 mg/L, 18 h at 37° C. in air
Procedure: as §1

[9] = test system: Staphylococcus aureus NCTC 6571; assay: multi-point inoculation onto Columbia agar plates; further: key: ++ means strong colour; + means less colour than ++; − means no colour; format: cell-based; settings: substrate 300 mg/L, FAC 500 mg/L, 18 h at 37° C. in air
Procedure: as §1

[10] = test system: Yersinia enterocolitica NCTC 11176; assay: multi-point inoculation onto Columbia agar plates; format: cell-based; settings: substrate 300 mg/L, FAC 500 mg/L, 18 h at 37° C. in air
Procedure: as §1

[11] = test system: Candida albicans ATCC 90028; assay: multi-point inoculation onto Columbia agar plates; further: key: ++ means strong colour; + means less colour than ++; − means no colour; format: cell-based; settings: substrate 300 mg/L, FAC 500 mg/L, 18 h at 37° C. in air
Procedure: as §1

[12] = test system: Providencia rettgeri NCTC 7475; assay: multi-point inoculation onto Columbia agar plates; further: key: ++ means strong colour; + means less colour than ++; − means no colour; format: cell-based; settings: substrate 300 mg/L, FAC 500 mg/L, 18 h at 37° C. in air
Procedure: as §1

[13] = test system: Klebsiella pneumoniae NCTC 9528; assay: multi-point inoculation onto Columbia agar plates; further: key: ++ means strong colour; + means less colour than ++; − means no colour; format: cell-based; settings: substrate 300 mg/L, FAC 500 mg/L, 18 h at 37° C. in air
Procedure: as §1

[14] = test system: Enterobacter cloacae NCTC 11936; assay: multi-point inoculation onto Columbia agar plates; further: key: ++ means strong colour; + means less colour than ++; − means no colour; format: cell-based; settings: substrate 300 mg/L, FAC 500 mg/L, 18 h at 37° C. in air
Procedure: as §1

[15] = test system: Bacillus subtilis NCTC 9372; assay: multi-point inoculation onto Columbia agar plates; further: key: ++ means strong colour; + means less colour than ++; − means no colour; format: cell-based; settings: substrate 300 mg/L, FAC 500 mg/L, 18 h at 37° C. in air
Procedure: as §1

[16] = test system: Candida glabrata NCPF 3943; assay: multi-point inoculation onto Columbia agar plates; further: key: ++ means strong colour; + means less colour than ++; − means no colour; format: cell-based; settings: substrate 300 mg/L, FAC 500 mg/L, 18 h at 37° C. in air
Procedure: as §1

[17] = test system: Enterococcus faecalis NCTC 775; assay: multi-point inoculation onto Columbia agar plates; further: key: ++ means strong colour; + means less colour than ++; − means no colour; format: cell-based; settings: substrate 300 mg/L, FAC 500 mg/L, 18 h at 37° C. in air
Procedure: as §1

[18] = test system: Streptococcus pyogenes NCTC 8306; assay: multi-point inoculation onto Columbia agar plates; further: key: ++ means strong colour; + means less colour than ++; − means no colour; format: cell-based; settings: substrate 300 mg/L, FAC 500 mg/L, 18 h at 37° C. in air
Procedure: as §1

[19] = test system: Listeria monocytogenes NCTC 11994; assay: multi-point inoculation onto Columbia agar plates; further: key: ++ means strong colour; + means less colour than ++; − means no colour; format: cell-based; settings: substrate 300 mg/L, FAC 500 mg/L, 18 h at 37° C. in air
Procedure: as §1

[20] = test system: Serratia marcescens NCTC 10211; assay: multi-point inoculation onto Columbia agar plates; further: key: ++ means strong colour; + means less colour than ++; − means no colour; format: cell-based; settings: substrate 300 mg/L, FAC 500 mg/L, 18 h at 37° C. in air
Procedure: as §1

[21] = test system: Escherichia coli NCTC 10418; assay: multi-point inoculation onto Columbia agar plates; on colour: key: ++ means strong colour; + means less colour than ++; − means no colour; format: cell-based; settings: for intensity of the colour / performance compared with the other substrates: comparison in words, Columbia agar with FAC; for colour: substrate 300 mg/L, FAC 500 mg/L, 18 h at 37° C. in air
Procedure: as §1

SMILES	melting point	result with the other 19 organisms [1]	colour [2]	colour [3]	colour [4]	colour [5]	colour [6]	colour [7]	colour [8]	colour [9]	colour [10]	colour [11]	colour [12]	colour [13]	colour [14]	colour [15]	colour [16]	colour [17]	colour [18]	colour [19]	further results
O=C(O)C1OC(Oc2ccccc2O)C(O)C(O)C1O (as salt: salt) [Compound 1, Catechol β-D-Glucuronide CHA Salt]	208 to 210 °C																				
O=C(O)C1OC(Oc2cc3ccccc3cc2O)C(O)C(O)C1O (as salt: salt) [Compound 2b, DHN-β-D-Glucuronide CHA Salt]	223 to 224 °C																				
O=C([O-])C1OC(Oc2cc3ccccc3cc2O)C(O)C(O)C1O.[Na+] [Compound 2a, DHN-β-D-Glucuronide Sodium Salt]	53 to 55 °C	uniformly negative	−	−	−	−	−	−	−	−	−	−	−	−	−	−	−	−	−	−	colour [20]: −; intensity of the colour / performance compared with the other substrates [21]: performed the same as its CHA salt (2b); colour [21]: ++
COC(=O)C1OC(Oc2ccccc2O)C(OC(C)=O)C(OC(C)=O)C1OC(C)=O [Compound 3, Catechol 2′,3′,4′,-tri-O-acetyl β-D-glucuronide-6′-methyl ester]	128 to 130 °C																				
COC(=O)C1OC(Oc2ccccc2O)C(O)C(O)C1O [Compound 4, Catechol β-D-Glucuronide-6′-Methyl Ester]		uniformly negative	−	−	−	−	−	−	−	−	−	−	−	−	−	−	−	−	−	−	colour [20]: −; intensity of the colour / performance compared with the other substrates [21]: noticeably inferior; colour [21]: +
COC(=O)C1OC(Oc2cc3ccccc3cc2O)C(OC(C)=O)C(OC(C)=O)C1OC(C)=O [Compound 5, DHN-2′,3′,4′-tri-O-acetyl-β-D-glucuronide-6-methyl ester]	191 to 192 °C																				
COC(=O)C1OC(Oc2cc3ccccc3cc2O)C(O)C(O)C1O [Compound 6, DHN-β-D-Glucuronide-6′-Methyl Ester]		uniformly negative	−	−	−	−	−	−	−	−	−	−	−	−	−	−	−	−	−	−	colour [20]: −; intensity of the colour / performance compared with the other substrates [21]: noticeably inferior; colour [21]: +
